Source: the supplement of paper PMC10307832

Experiments:
Test in all cases: relative viability (nuclei count vs DMSO), 5 days (fraction); higher = more cells survive
R406 + Phenformin = compound: COc1cc(Nc2ncc(F)c(Nc3ccc4c(n3)NC(=O)C(C)(C)O4)n2)cc(OC)c1OC [R406] + N=C(N)NC(=N)NCCc1ccccc1 [Phenformin] (partner 250 µM)
Procedure, shortened: (§1)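 Lung cancer cell lines in 1536-well plates were dosed by pin tool the day after seeding, either with one drug alone or with a fixed anchor-drug dose plus five library-drug doses (not always all listed) in √10 steps. After 5 days, cells were fixed and their nuclei stained in one step (final 0.05% Triton X-100, 1% formaldehyde, 1 ug/ml Hoechst), then counted on 4× images. Relative viability is the nuclei count in treated wells divided by that in vehicle wells. Values are medians of duplicate plates.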

R406 + Alpelisib = compound: COc1cc(Nc2ncc(F)c(Nc3ccc4c(n3)NC(=O)C(C)(C)O4)n2)cc(OC)c1OC [R406] + Cc1nc(NC(=O)N2CCC[C@H]2C(N)=O)sc1-c1ccnc(C(C)(C)C(F)(F)F)c1 [Alpelisib] (partner 2 µM)
Procedure, shortened: as §1

Daporinad + Vorinostat = compound: O=C(/C=C/c1cccnc1)NCCCCC1CCN(C(=O)c2ccccc2)CC1 [Daporinad] + O=C(CCCCCCC(=O)Nc1ccccc1)NO [Vorinostat] (partner 1 µM)
Procedure, shortened: as §1

R406 + Trametinib = compound: COc1cc(Nc2ncc(F)c(Nc3ccc4c(n3)NC(=O)C(C)(C)O4)n2)cc(OC)c1OC [R406] + CC(=O)Nc1cccc(-n2c(=O)n(C3CC3)c(=O)c3c(Nc4ccc(I)cc4F)n(C)c(=O)c(C)c32)c1 [Trametinib] (partner 0.02 µM)
Procedure, shortened: as §1

Cell Line | relative viability (R406 + Phenformin; first compound 0.08 µM) | relative viability (R406 + Phenformin; first compound 0.253 µM) | relative viability (R406 + Phenformin; first compound 0.8 µM) | relative viability (R406 + Phenformin; first compound 2.53 µM) | relative viability (R406 + Phenformin; first compound 8 µM) | relative viability (R406 + Alpelisib; first compound 0.08 µM) | relative viability (R406 + Alpelisib; first compound 0.253 µM) | relative viability (R406 + Alpelisib; first compound 0.8 µM) | relative viability (R406 + Alpelisib; first compound 8 µM) | relative viability (Daporinad + Vorinostat; first compound 0.0005 µM) | relative viability (Daporinad + Vorinostat; first compound 0.005 µM) | relative viability (Daporinad + Vorinostat; first compound 0.01581 µM) | relative viability (R406 + Trametinib; first compound 0.08 µM) | relative viability (R406 + Trametinib; first compound 0.253 µM) | relative viability (R406 + Trametinib; first compound 0.8 µM) | relative viability (R406 + Trametinib; first compound 2.53 µM) | relative viability (R406 + Trametinib; first compound 8 µM) | relative viability (R406 + Alpelisib; first compound 2.53 µM) | relative viability (Daporinad + Vorinostat; first compound 0.001581 µM)
HCC-366 | 0.627 | 0.622 | 0.721 | 0.521 | 0.254 | 0.41 | 0.439 | 0.441 | 0.0784 | 0.363 | 0.389 | 0.321 | 0.342 | 0.411 | 0.42 | 0.234 | 0.0517 |  | 
HCC-827 | 0.436 | 0.401 | 0.439 | 0.265 | 0.215 | 1.04 | 0.903 | 1.03 | 0.282 | 0.929 | 0.913 | 0.906 | 0.564 | 0.578 | 0.517 | 0.399 | 0.383 | 0.827 | 0.871
HOP-62 | 0.661 | 0.783 | 0.631 | 0.71 | 0.658 | 0.779 | 1.04 | 0.886 | 0.913 | 0.341 | 0.618 | 0.414 | 0.379 | 0.388 | 0.427 | 0.37 | 0.339 | 1.09 | 0.724
IA-LM |  |  |  |  |  | 0.888 | 0.999 | 1 | 0.81 | 0.855 | 0.986 | 1.09 |  |  |  |  |  | 0.962 | 1.25
LC-2-ad | 0.592 | 0.561 | 0.579 | 0.384 | 0.25 | 0.769 | 0.802 | 0.909 | 0.0848 | 0.677 | 0.693 | 0.63 | 0.912 | 0.907 | 0.971 | 0.465 | 0.334 | 0.329 | 0.769
LCLC-97TM1 | 0.351 | 0.407 | 0.379 | 0.251 | 0.351 | 0.209 | 0.265 | 0.267 | 0.256 | 0.547 | 0.867 | 1.1 | 0.218 | 0.23 | 0.226 | 0.174 | 0.194 | 0.202 | 0.686
LCLC-103H | 0.327 | 0.345 | 0.419 | 0.317 | 0.314 | 0.906 | 1.1 | 0.901 | 0.741 | 0.747 | 0.864 | 0.999 | 0.66 | 0.675 | 0.672 | 0.691 | 0.604 | 0.901 | 0.835
LK-2 | 0.385 | 0.807 | 0.428 | 0.181 | 0.105 | 0.98 | 1.05 | 1.02 | 0.566 | 0.28 | 0.307 | 0.256 | 0.675 | 1 | 0.718 | 0.706 | 0.447 | 0.803 | 0.331
LOU-NH91 | 0.711 | 0.72 | 0.713 | 0.416 | 0.391 | 0.726 | 0.718 | 0.789 | 0.449 | 0.929 | 1.1 | 1.02 | 0.804 | 0.8 | 0.759 | 0.621 | 0.549 | 0.51 | 1.01
LU99A | 0.789 | 0.99 | 0.95 | 0.556 | 0.759 | 0.462 | 0.468 | 0.617 | 0.193 | 0.499 | 0.545 | 0.571 | 0.532 | 0.522 | 0.56 | 0.458 | 0.358 |  | 0.594
LXF-289 | 0.517 | 0.543 | 0.533 | 0.38 | 0.4 | 0.977 | 1.06 | 1.04 | 0.193 | 0.692 | 0.794 | 0.96 | 0.675 | 0.694 | 0.68 | 0.67 | 0.672 | 1 | 0.937
NCI-H23 | 0.693 | 0.821 | 0.775 |  | 0.355 | 0.638 | 0.759 | 0.786 | 0.438 | 0.624 | 0.586 | 0.2 | 0.288 | 0.376 | 0.444 | 0.399 | 0.128 | 0.732 | 0.251
NCI-H522 | 0.595 | 0.595 | 0.619 | 0.553 | 0.583 |  |  |  |  | 0.995 | 0.946 | 0.544 | 0.779 | 0.917 | 0.787 | 0.746 | 0.599 |  | 1.13
NCI-H1299 |  |  |  |  |  | 1 | 1.02 | 1.11 | 1.09 |  |  |  |  |  |  |  |  | 1.12 | 
NCI-H1563 | 0.662 | 0.664 | 0.682 | 0.511 | 0.445 | 0.938 | 0.996 | 0.924 | 0.634 |  |  |  |  |  |  |  |  | 0.682 | 
NCI-H1623 | 0.577 | 0.624 | 0.611 | 0.585 | 0.554 |  |  |  |  |  |  |  |  |  |  |  |  |  | 
NCI-H1648 |  |  |  |  |  |  |  |  |  | 0.439 | 0.424 | 0.41 | 0.564 | 0.432 | 0.557 | 0.463 | 0.4 |  | 0.333
NCI-H1650 | 0.438 | 0.497 | 0.508 | 0.154 | 0.146 |  |  |  |  | 0.518 | 0.547 | 0.322 | 0.604 | 0.585 | 0.633 | 0.054 | 0.124 |  | 0.746
NCI-H1703 |  |  |  |  |  | 0.307 | 0.281 | 0.368 | 0.173 |  |  |  |  |  |  |  |  | 0.183 | 
NCI-H1792 |  | 0.377 | 0.246 | 0.0941 | 0.13 | 0.626 | 0.665 | 0.752 | 0.563 |  |  |  | 0.428 | 0.443 | 0.427 | 0.178 | 0.0999 | 0.541 | 
NCI-H2342 | 0.66 | 0.623 | 0.649 | 0.525 | 0.535 |  |  |  |  | 0.806 | 0.695 | 0.815 | 0.724 | 0.841 | 0.8 | 0.753 | 0.844 |  | 0.791
SW 900 | 0.53 | 0.662 | 0.792 | 0.189 | 0.215 |  |  |  |  | 0.461 | 0.86 | 0.3 | 0.958 | 0.805 | 0.906 | 0.764 | 0.118 |  | 
